Drawing on article PMC11613273, “High-Affinity Peptides for Target Protein Screened in Ultralarge Virtual Libraries” (ACS Central Science, 2024), this text covers Rmax and Kd for nine sequences.

The target in experiment [1] is SARS-CoV-2 RBD (Severe acute respiratory syndrome coronavirus 2, UniProt P0DTC2). In kind it is binding. The settings on record: maximum steady-state BLI response signal from fit.
The target in experiment [2] is Noro P-domain (Norovirus Hu/GII.4/Sydney/NSW0514/2012/AU, UniProt K4LM89). The experiment is described as follows: BLI analysis, steady-state. Type of experiment: binding, Norovirus GII.4. The conditions noted are these: maximum steady-state BLI response signal from fit.
Experiment [3] concerns the target T1, AFP (Homo sapiens, UniProt P02771).
T1 construct: purchased Sino Biological Co., LTD; (Beijing)
T1 sequence (P02771 19-609): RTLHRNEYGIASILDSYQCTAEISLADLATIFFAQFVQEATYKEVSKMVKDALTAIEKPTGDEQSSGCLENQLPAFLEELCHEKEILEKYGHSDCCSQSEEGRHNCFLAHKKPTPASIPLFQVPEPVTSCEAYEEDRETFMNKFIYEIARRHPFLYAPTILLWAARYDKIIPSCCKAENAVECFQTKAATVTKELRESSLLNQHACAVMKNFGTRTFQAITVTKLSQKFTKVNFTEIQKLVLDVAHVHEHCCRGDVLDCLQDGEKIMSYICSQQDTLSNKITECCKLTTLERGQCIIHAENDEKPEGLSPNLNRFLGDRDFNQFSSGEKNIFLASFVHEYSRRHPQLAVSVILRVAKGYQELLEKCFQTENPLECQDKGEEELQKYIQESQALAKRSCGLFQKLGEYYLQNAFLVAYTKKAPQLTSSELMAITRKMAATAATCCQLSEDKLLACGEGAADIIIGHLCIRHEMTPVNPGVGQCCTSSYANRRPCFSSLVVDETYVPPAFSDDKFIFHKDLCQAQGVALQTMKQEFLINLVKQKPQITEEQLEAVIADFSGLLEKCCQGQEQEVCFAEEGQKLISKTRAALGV
In words: BLI analysis, steady-state. Type of experiment: binding. The settings on record: for Kd: BLI Octet Red96, biotinylated target on SSA sensors, peptide 3.125 to 200 nM, 25°C, kinetics buffer (10 mM PBS, 0.1% BSA, 0.05% Tween-20), steady-state fit, 1:1 model; for Rmax: maximum steady-state BLI response signal from fit.

Where no end group is shown, it is not given here.

CPPPAPQFPFPWPPW [Pep-2458] had an Rmax in experiment [1] of 0.2149±0.0080 nm.
CPPPFPGRPPPWPPF [Pep-1927]: the Rmax in experiment [1] is 0.1296±0.0076 nm.
Consider CPPPPPYYKPPGHPP [Pep-6626], for which, in experiment [1], the Rmax is listed as 0.1940±0.0063 nm.
In experiment [2], FFGPPPWPPPPPPWY [Pep-3076] returned an Rmax of 0.4267±0.0208 nm.
FPPPPPHPWPPPPWA [Pep-21] came in with an Rmax in experiment [2] of 0.7092±0.0344 nm.
On to FPPPPWWDWPPPPWW [Pep-595], for which the Rmax in experiment [2] is 0.4957±0.0130 nm.
For the sequence PIWWYHAEKPEHWPI [Pep-5890], in experiment [3], the affinity, expressed as Kd, was 74.8 ± 11 nM and the Rmax is 0.2242±0.0144 nm.
In experiment [3], WWALEHYPPPYMQIW [Pep-6973] gave a Kd of 69.3 ± 14.4 nM and an Rmax of 0.2449±0.0216 nm.
In experiment [3], WWWWWPHHDWKLVWC [Pep-7937] showed a Kd of 40.6 ± 7.31 nM and an Rmax of 0.0945±0.0061 nm.
